Measured values from the supplement of paper PMC11061612.

How the values were obtained:
Assay in all cases: Bliss excess, mean over the matrix (fraction); higher = more synergy
[1] = system: NCI-H1838 (Lung Adenocarcinoma)
Summary of the method: (§1)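 Cell lines in DMEM/F12 or RPMI with 10% FBS were plated in 1536-well plates, held 24 hours at 37°C, 5% CO2, then given two-drug dose matrices for 72 hours (DMSO typically 0.2%). Viability was read by CellTiter-Glo 2.0 luminescence and scaled as inhibition from 0 (vehicle wells) to 1 (blank wells). Combination Emax is the second-highest inhibition in the matrix; Bliss excess is observed combination effect minus expected EA + EB − EA·EB, EA and EB being single-agent effects.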

[2] = system: DU-145 (Prostate Carcinoma)
Summary of the method: as §1

[3] = system: SW982 (Other Solid Carcinomas)
Summary of the method: as §1

EW-1 (Ewing's Sarcoma) = system: EW-1 (Ewing's Sarcoma)
Summary of the method: as §1

[4] = system: NCI-H522 (Lung Adenocarcinoma)
Summary of the method: as §1

SK-N-AS (Neuroblastoma) = system: SK-N-AS (Neuroblastoma)
Summary of the method: as §1

[5] = system: HAL-01 (B-Lymphoblastic Leukemia)
Summary of the method: as §1

[6] = system: ALL-SIL (T-Lymphoblastic Leukemia)
Summary of the method: as §1

[7] = system: OE33 (Esophageal Adenocarcinoma)
Summary of the method: as §1

[8] = system: ME-180 (Cervical Carcinoma)
Summary of the method: as §1

[9] = system: Ca-Ski (Cervical Carcinoma)
Summary of the method: as §1

[10] = system: OACM5-1 (Esophageal Adenocarcinoma)
Summary of the method: as §1

[11] = system: NCI-H2122 (Lung Adenocarcinoma)
Summary of the method: as §1

[12] = system: MOG-G-UVW (Low Grade Glioma)
Summary of the method: as §1

[13] = system: MDA-MB-453 (Breast Carcinoma)
Summary of the method: as §1

[14] = system: LC-1-sq (Squamous Cell Lung Carcinoma)
Summary of the method: as §1

[15] = system: KOPN-8 (B-Lymphoblastic Leukemia)
Summary of the method: as §1

[16] = system: HCC2998 (Colorectal Carcinoma)
Summary of the method: as §1

[17] = system: CADO-ES1 (Ewing's Sarcoma)
Summary of the method: as §1

[18] = system: EFO-21 (Ovarian Carcinoma)
Summary of the method: as §1

CC1(C)CCC(CN2CCN(c3ccc(C(=O)NS(=O)(=O)c4ccc(NCC5CCOCC5)c([N+](=O)[O-])c4)c(Oc4cnc5[nH]ccc5c4)c3)CC2)=C(c2ccc(Cl)cc2)C1 [Venetoclax] + C[C@@H](Nc1cc(F)cc(F)c1)c1cc(C(=O)N(C)C)cc2c(=O)cc(N3CCOCC3)oc12 [AZD8186] (first compound max 1 µM, 7x7, partner max 3 µM)
Bliss excess [1]: -0.031
Bliss excess [2]: -0.0239
Bliss excess [3]: -0.0813
Bliss excess (EW-1 (Ewing's Sarcoma)): -0.001
Bliss excess [4]: -0.0273
Bliss excess (SK-N-AS (Neuroblastoma)): -0.0347
Bliss excess [5]: 0.0246
Bliss excess [6]: 0.0344
Bliss excess [7]: -0.0169
Bliss excess [8]: -0.015
Bliss excess [9]: -0.0259
Bliss excess [10]: 0.0321
Bliss excess [11]: 0.0055
Bliss excess [12]: -0.0111
Bliss excess [13]: -0.0313
Bliss excess [14]: -0.0254
Bliss excess [15]: -0.0088
Bliss excess [16]: -0.0317
Bliss excess [17]: 0.117
Bliss excess [18]: -0.0441

CC1(C)CCC(CN2CCN(c3ccc(C(=O)NS(=O)(=O)c4ccc(NCC5CCOCC5)c([N+](=O)[O-])c4)c(Oc4cnc5[nH]ccc5c4)c3)CC2)=C(c2ccc(Cl)cc2)C1 [Venetoclax] + Cc1cc2ncnn2cc1Nc1ncc2c(n1)n(C1CCOCC1)c(=O)n2C [AZD7648] (first compound max 1 µM, 7x7, partner max 10 µM)
Bliss excess [1]: 0.0538
Bliss excess [2]: -0.0166
Bliss excess [3]: 0.0103
Bliss excess (EW-1 (Ewing's Sarcoma)): -0.008
Bliss excess [4]: -0.0232
Bliss excess (SK-N-AS (Neuroblastoma)): -0.0485
Bliss excess [5]: -0.022
Bliss excess [6]: -0.0022
Bliss excess [7]: -0.0449
Bliss excess [8]: 0.0013
Bliss excess [9]: -0.0061
Bliss excess [10]: -0.0269
Bliss excess [11]: 0.0311
Bliss excess [12]: -0.0482
Bliss excess [13]: -0.0037
Bliss excess [14]: 0.0004
Bliss excess [15]: 0.0037
Bliss excess [16]: -0.0314
Bliss excess [17]: -0.0223
Bliss excess [18]: -0.0212

CC1(C)CCC(CN2CCN(c3ccc(C(=O)NS(=O)(=O)c4ccc(NCC5CCOCC5)c([N+](=O)[O-])c4)c(Oc4cnc5[nH]ccc5c4)c3)CC2)=C(c2ccc(Cl)cc2)C1 [Venetoclax] + Cn1cnc2c(F)c(Nc3ccc(Br)cc3Cl)c(C(=O)NOCCO)cc21 [Selumetinib] (first compound max 1 µM, 7x7, partner max 3 µM)
Bliss excess [1]: -0.0013
Bliss excess [2]: -0.0121
Bliss excess [3]: -0.0722
Bliss excess (EW-1 (Ewing's Sarcoma)): -0.0483
Bliss excess [4]: -0.0215
Bliss excess (SK-N-AS (Neuroblastoma)): 0.0083
Bliss excess [5]: 0.0009
Bliss excess [6]: 0.0035
Bliss excess [7]: -0.0192
Bliss excess [8]: -0.01
Bliss excess [9]: -0.0038
Bliss excess [10]: 0.0243
Bliss excess [11]: 0.0375
Bliss excess [12]: 0.0564
Bliss excess [13]: -0.0284
Bliss excess [14]: -0.0135
Bliss excess [15]: 0.113
Bliss excess [16]: -0.0065
Bliss excess [17]: -0.0596
Bliss excess [18]: -0.069
